According to patent publication US10493070B2 (priority 2016, dated 2019):

The compounds below were run on recombinant NL4-3 virus (NLRluc, Renilla luciferase in nef, Gag P373S) (assay: HIV cell culture assay (Renilla luciferase reporter virus in MT-2 cells)). Conditions: Renilla, NL43, read-out: 10% FBS EC50, 10% FBS, class symbols A/B/C.
Type: cell-based
Method in brief: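 MT-2 cells infected with NL4-3 reporter virus (Renilla luciferase replacing part of nef, Gag P373S), made by 293T transfection and titered in MT-2 cells by luciferase. Infection runs 4–5 days with serial inhibitor dilutions. Antiviral activity read as Renilla luciferase activity (Dual Luciferase reagents).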

Question: Which EC50 does the source give for `CC1(C)C(c2ccc(C(=O)O)cc2)=CC[C@]2(C)CN(C(=O)c3ccc4[nH]nnc4c3)CC=C12` [Example 42] here?
Answer: Its EC50 is over 3000 nM.

Question: For `CC1(C)C(c2ccc(C(=O)O)cc2)=CC[C@]2(C)CN(C(=O)c3ccc(CN)cc3)CC=C12` [Example 53], which EC50 is on record?
Answer: Its EC50 is over 3000 nM.

Question: `CC1(C)C(c2ccc(C(=O)O)cc2)=CC[C@]2(C)CN(C(=O)c3cncc(C(=O)O)c3)CC=C12` [Example 45] was tested. Which EC50 did it give?
Answer: The EC50 was over 3000 nM.

Question: With `CC1(C)C(c2ccc(C(=O)O)cc2)=CC[C@]2(C)CN(C(=O)C(=O)N3CCC[C@H]3C(=O)NCCN3CCS(=O)(=O)CC3)CC[C@@H]12` [Example C1, 4-((4aS,8aS)-2-(2-((S)-2-((2-(1,1-dioxidothiomorpholino)ethyl)carbamoyl)pyrrolidin-1-yl)-2-oxoacetyl)-5,5,8a-trimethyl-1,2,3,4,4a,5,8,8a-octahydroisoquinolin-6-yl)benzoic acid] as the compound, how does the EC50 read?
Answer: Its EC50 is over 3000 nM.

Question: For `CC(C)C[C@@H](NC(=O)OC(C)(C)C)C(=O)N1CCC(C(=O)N2CC[C@H]3C(C)(C)[C@@H](c4ccc(C(=O)O)cc4)CC[C@]3(C)C2)(c2ccccc2)CC1` [Example 86], which EC50 is on record?
Answer: Its EC50 is under 500 nM.

Question: How did the EC50 turn out when `COc1ccc(C(=O)N2CC=C3C(C)(C)C(c4ccc(C(=O)O)cc4)=CC[C@]3(C)C2)cc1` [Example 19] was run?
Answer: Its EC50 is over 3000 nM.

Question: With `CC1(C)C(c2ccc(C(=O)O)cc2)=CC[C@]2(C)CN(C(=O)c3cccc(F)c3F)CC=C12` [Example 4] as the compound, how does the EC50 read?
Answer: Its EC50 is over 3000 nM.

Question: How did the EC50 turn out when `CC1(C)C(c2ccc(C(=O)O)cc2)=CC[C@]2(C)CN(C(=O)c3cccc(C(=O)N4CC=C5C(C)(C)C(c6ccc(C(=O)O)cc6)=CC[C@]5(C)C4)n3)CC=C12` [Example 61] was run?
Answer: The EC50 was over 3000 nM.

Question: For `CC1(C)C(c2ccc(C(=O)O)cc2)=CC[C@]2(C)CN(C(=O)c3cncc(C(=O)NCCCN4CCS(=O)(=O)CC4)c3)CC=C12` [Example 71], which EC50 is on record?
Answer: The EC50 was over 3000 nM.

Question: For `CC1(C)C(c2ccc(C(=O)O)cc2)=CC[C@]2(C)CN(C(=O)c3ccc(C(N)=O)cc3)CC=C12` [Example 22], which EC50 is on record?
Answer: Its EC50 is over 3000 nM.

Question: With `CC1(C)C(c2ccc(C(=O)O)cc2)=CC[C@]2(C)CN(C(=O)c3ccccc3-c3nc4ccc(F)c(F)c4o3)CC=C12` [Example A314] as the compound, how does the EC50 read?
Answer: The EC50 was 500 to 3000 nM.

Question: How did the EC50 turn out when `CC1(C)C(c2ccc(C(=O)O)cc2)=CC[C@]2(C)CN(C(=O)c3ccc(F)c(F)c3)CC=C12` [Example 7] was run?
Answer: The EC50 was over 3000 nM.

Question: For `Cc1cc(Cl)cc2[nH]c(-c3ccccc3C(=O)N3CC=C4C(C)(C)C(c5ccc(C(=O)O)cc5)=CC[C@]4(C)C3)nc12` [Example A271], which EC50 is on record?
Answer: Its EC50 is under 500 nM.

Question: `CC(C)(C)OC(=O)N[C@H]1CC[C@H](C(=O)N2CC=C3C(C)(C)C(c4ccc(C(=O)O)cc4)=CC[C@]3(C)C2)CC1` [Example 15] was tested. Which EC50 did it give?
Answer: Its EC50 is over 3000 nM.

Question: Which EC50 does the source give for `CC1(C)C(c2ccc(C(=O)O)cc2)=CC[C@]2(C)CN(c3ccc(-c4nnn(CCN5CCS(=O)(=O)CC5)n4)cc3)CC=C12` [Example B5] here?
Answer: The EC50 was over 3000 nM.

Question: With `CC1(C)C(c2ccc(C(=O)O)cc2)=CC[C@]2(C)CN(C(=O)c3ccc4[nH]cnc4c3)CC=C12` [Example 40] as the compound, how does the EC50 read?
Answer: Its EC50 is over 3000 nM.

Question: For `CC1(C)C(c2ccc(C(=O)O)cc2)=CC[C@]2(C)CN(C(=O)CCN3CCS(=O)(=O)CC3)CC=C12` [Example 36], which EC50 is on record?
Answer: Its EC50 is over 3000 nM.

Same assay, conditions: Renilla, NL43, read-out: 10% FBS EC50, 10% FBS, numeric values

Question: `CC1(C)C(c2ccc(C(=O)O)cc2)=CC[C@]2(C)CN(c3ccccc3-c3nnn(CCN4CCS(=O)(=O)CC4)n3)CC=C12` [Example B6] was tested. Which EC50 did it give?
Answer: Its EC50 is 45 nM.

Question: How did the EC50 turn out when `CC1(C)C(c2ccc(C(=O)O)cc2)=CC[C@@]2(C)CN(C(=O)c3cccc4c3C(=O)c3ccccc3-4)CC=C12` [Example A30] was run?
Answer: The EC50 was 1080 nM.

Question: How did the EC50 turn out when `CC1(C)C(c2ccc(C(=O)O)cc2)=CC[C@]2(C)CN(C(=O)c3ccccc3-c3ccc(C#N)cc3)CC=C12` [Example A71] was run?
Answer: Its EC50 is 1300 nM.

Question: `CC1(C)C(c2ccc(C(=O)O)cc2)=CC[C@]2(C)CN(C(=O)c3ccccc3-c3nc4cc(F)c(Cl)cc4[nH]3)CC=C12` [Example A260] was tested. Which EC50 did it give?
Answer: Its EC50 is 298 nM.

Question: With `CC(C)(C)OC(=O)N[C@H](C(=O)N1CCC(C(=O)N2CC=C3C(C)(C)C(c4ccc(C(=O)O)cc4)=CC[C@]3(C)C2)(c2ccccc2)CC1)C(C)(C)C` [Example A219] as the compound, how does the EC50 read?
Answer: The EC50 was 150 nM.

Question: With `CC1(C)C(c2ccc(C(=O)O)cc2)=CC[C@]2(C)CN(C(=O)c3ccccc3N3CCNCC3)CC=C12` [Example 51, (S)-4-(5,5,8a-trimethyl-2-(2-(piperazin-1-yl)benzoyl)-1,2,3,5,8,8a-hexahydroisoquinolin-6-yl)benzoic acid] as the compound, how does the EC50 read?
Answer: Its EC50 is 870 nM.

Question: `CC1(C)C(c2ccc(C(=O)O)cc2)=CC[C@]2(C)CN(c3cc(NC(=O)CCN4CCS(=O)(=O)CC4)cc(-c4nnn(CCN5CCS(=O)(=O)CC5)n4)c3)CC=C12` [Example B4, (S)-4-(2-(3-(2-(2-(1,1-dioxidothiomorpholino)ethyl)-2H-tetrazol-5-yl)-5-(3-(1,1-dioxidothiomorpholino)propanamido)phenyl)-5,5,8a-trimethyl-1,2,3,5,8,8a-hexahydroisoquinolin-6-yl)benzoic acid] was tested. Which EC50 did it give?
Answer: The EC50 was 1700 nM.

Question: How did the EC50 turn out when `CC1(C)C(c2ccc(C(=O)O)cc2)=CC[C@]2(C)CN(C(=O)c3ccccc3-c3nc4ccccc4o3)CC=C12` [Example A325] was run?
Answer: The EC50 was 235 nM.

Question: With `CC1(C)C(c2ccc(C(=O)O)cc2)=CC[C@]2(C)CN(C(=O)C3(Cc4ccccc4)CCNCC3)CC=C12` [Example 55] as the compound, how does the EC50 read?
Answer: The EC50 was 3040 nM.

Question: How did the EC50 turn out when `CC1(C)C(c2ccc(C(=O)O)cc2)=CC[C@]2(C)CN(C(=O)C3(c4ccccc4)CCN(C(=O)CN4CCS(=O)(=O)CC4)CC3)CC=C12` [Example 94] was run?
Answer: Its EC50 is 1370 nM.

Question: How did the EC50 turn out when `C[C@@H](OC(C)(C)C)[C@H](NC(=O)OC(C)(C)C)C(=O)N1CCC(C(=O)N2CC=C3C(C)(C)C(c4ccc(C(=O)O)cc4)=CC[C@]3(C)C2)(c2ccccc2)CC1` [Example A185] was run?
Answer: The EC50 was 123 nM.

Question: With `CC1(C)C(c2ccc(C(=O)O)cc2)=CC[C@]2(C)CN(c3ncnc(NCCCN4CCS(=O)(=O)CC4)n3)CC=C12` [Example 74, (S)-4-(2-(4-((3-(1,1-dioxidothiomorpholino)propyl)amino)-1,3,5-triazin-2-yl)-5,5,8a-trimethyl-1,2,3,5,8,8a-hexahydroisoquinolin-6-yl)benzoic acid] as the compound, how does the EC50 read?
Answer: Its EC50 is 340 nM.

Question: Which EC50 does the source give for `CC1(C)C(c2ccc(C(=O)O)cc2)=CC[C@]2(C)CN(C(=O)c3ccccc3-n3cccn3)CC=C12` [Example A58] here?
Answer: The EC50 was 1850 nM.

Question: With `Cc1ncc(C)n2nc(-c3ccc4c(c3)nc(-c3ccccc3C(=O)N3CC=C5C(C)(C)C(c6ccc(C(=O)O)cc6)=CC[C@]5(C)C3)n4C)nc12` [Example A278] as the compound, how does the EC50 read?
Answer: The EC50 was 4960 nM.

Question: With `CC1(C)C(c2ccc(C(=O)O)cc2)=CC[C@]2(C)CN(C(=O)c3ccc(C(=O)N4CC=C5C(C)(C)C(c6ccc(C(=O)O)cc6)=CC[C@]5(C)C4)cc3)CC=C12` [Example 59] as the compound, how does the EC50 read?
Answer: Its EC50 is 1050 nM.

Question: With `CC1(C)C(c2ccc(C(=O)O)cc2)=CC[C@]2(C)CN(C(=O)c3ccccc3-c3nc4cc(Br)ccc4o3)CC=C12` [Example A315] as the compound, how does the EC50 read?
Answer: The EC50 was 127 nM.

Question: How did the EC50 turn out when `CC(C)(C)OC(=O)N1CCC(C(=O)N2CCC3C(C)(C)[C@@H](c4ccc(C(=O)O)cc4)CC[C@]3(C)C2)(c2ccccc2)CC1` (stereo partly shown) [Example 84] was run?
Answer: The EC50 was 50 nM.
